In patent publication US9745275B2, “Pain-related compound and medical composition” (KYOTO UNIVERSITY, priority 2013, dated 2017):

Key:
Format in all cases: in vivo, mouse
[1] = tested on: carrageenan-induced inflammatory pain model mice; assay: von Frey test, mechanical allodynia in carrageenan-induced inflammatory pain model mice; settings: for threshold of withdrawal reflex behavior to mechanical stimulation (FIG. 3A, FIG. 5A): intrathecal, given 6 h after carrageenan, examined over three hours (compound 2: 0.1, 1 or 10 pmol)
Experimental: After subcutaneous plantar administration of carrageenan, acute inflammation develops over several hours, which causes a phenomenon of hypersensitivity to mechanical stimulation and thermal stimulation. A therapeutic agent containing the compound 1 as an active ingredient was administered to each of model mice of this carrageenan-induced inflammatory pain, and pain was evaluated.
More specifically, at seven hours after carrageenan was subcutaneously administered to a hind limb sole of each mouse (male, C57BL/6J, 6 to 8 weeks old), the compound 1 was administered orally, and at one hour after the administration of the compound 1, therapeutic effects thereof with respect to mechanical allodynia were determined. Specific conditions are as follows.
Mouse: C57BL/6J, male, 8 weeks old, n =4 (each foot, n=8) Induction of pain: 25 μL of physiological saline solution containing 2% of λ-carrageenan was injected subcutaneously to hind limb soles, so that pain was induced. […]
Evaluation of pain: Evaluation was performed by von Frey test. More specifically, a hind limb sole of the mouse was mechanically stimulated with tips of von-Frey filaments having a variety of thicknesses, and a load of stimulation at which the mouse initiated a withdrawal behavior was determined. […]
(§1) Before and after carrageenan (2%, 25 μl) was subcutaneously administered to a one-side hind limb sole of each mouse (male, C57BL/6J, 6 to 8 weeks old), mechanical stimulation or thermal stimulation was applied, and threshold (mechanical stimulation) and latency (thermal stimulation) of a withdrawal reflex behavior of the hind limb were measured. […]
as §1

[2] = tested on: carrageenan-induced inflammatory pain model mice; assay: latency of withdrawal reflex to thermal stimulation (thermal hyperalgesia) in carrageenan-induced inflammatory pain model mice; settings: given 6 h after carrageenan; for suppression of thermal hyperalgesia: intrathecal, examined over three hours (compound 2: 0.1, 1 or 10 pmol)
Experimental: Before and after carrageenan (2%, 25 μl) was subcutaneously administered to a one-side hind limb sole of each mouse (male, C57BL/6J, ([…]), thermal stimulation was applied, and latency of a withdrawal reflex behavior of the hind limb was measured. The appearance of the phenomenon of thermal hyperalgesia due to carrageenan was checked over six hours after the administration, and thereafter, the compound 1 or a solvent used for dissolution (veh.) was administered orally (1 pmol or 10 pmol per 1 g of the mouse body). Effects were examined over two hours thereafter. The results are illustrated in FIG. 2.
Before and after carrageenan (2%, 25 μl) was subcutaneously administered to a one-side hind limb sole of each mouse (male, C57BL/6J, 6 to 8 weeks old), mechanical stimulation or thermal stimulation was applied, and threshold (mechanical stimulation) and latency (thermal stimulation) of a withdrawal reflex behavior of the hind limb were measured. The appearance of the phenomenon of mechanical allodynia or the appearance of thermal hyperalgesia due to carrageenan was checked over six hours after the administration, and thereafter, the compound 2 was administered intrathecally (0.1 pmol, 1 pmol, or 10 pmol). Effects were examined over three hours thereafter. The solution of the compound 2 was prepared by dissolving the compound 2 in 99% DMSO, and diluting the same with physiological saline solution (0.2% DMSO in physiological saline solution).
Before and after carrageenan (2%, 25 μl) was subcutaneously administered to a one-side hind limb sole of each mouse (male, C57BL/6J, 6 to 8 weeks old), mechanical stimulation or thermal stimulation was applied, and threshold (mechanical stimulation) and latency (thermal stimulation) of a withdrawal reflex behavior of the hind limb were measured. The appearance of the phenomenon of mechanical allodynia or the appearance of the thermal hyperalgesia due to carrageenan was checked over six hours after the administration, and thereafter, the compound 4 was administered intrathecally. Effects were examined over three hours thereafter. The solution of the compound 4 was prepared by dissolving the […] in 99% DMSO, and diluting the same with physiological saline solution (0.2% DMSO in physiological saline solution). The results are illustrated in FIG. 5.
Before and after carrageenan (2%, 25 μl) was subcutaneously administered to a one-side hind limb sole of each mouse (male, C57BL/6J, 6 to 8 weeks old), thermal stimulation was applied, and latency of a withdrawal reflex behavior of the hind limb was measured. The appearance of the phenomenon of thermal hyperalgesia due to carrageenan was checked over six hours after the administration, and thereafter, the compound 5 was administered intrathecally. Effects were examined over three hours thereafter. The solution of the compound 5 was prepared by dissolving the compound 5 in 99% DMSO, and diluting the same with physiological saline solution (0.2% DMSO in physiological saline solution). The results are illustrated in FIG. 6.
Before and after carrageenan (2%, 25 μl) was subcutaneously administered to a one-side hind limb sole of each mouse (male, C57BL/6J, 6 to 8 weeks old), thermal stimulation was applied, and latency of a withdrawal reflex behavior of the hind limb was measured. […]

[3] = tested on: carrageenan-induced inflammatory pain model mice; assay: von Frey test with simultaneous administration of compound and opioid antagonist in carrageenan-induced inflammatory pain model mice; settings: intraperitoneal, compound 1 nmol/g plus opioid antagonist 20 nmol/g, 7 h after carrageenan, evaluated at 1 h and 3 h
Experimental: Carrageenan was subcutaneously injected to a hind limb sole of each mouse, and seven hours later, the compound 1 and an opioid antagonist were simultaneously administered intraperitoneally. At one hour after the administration and at three hours after the administration, therapeutic effects with respect to mechanical allodynia were evaluated. Specific conditions were as follows.
Mouse: C57B116J, male, 8 weeks old
Induction of pain: Pain was induced by subcutaneously injecting 20 μL of physiological saline solution containing 2% λ-carrageenan to a hind limb sole.
Administration of therapeutic agent: 1% Tween80 (trademark) physiological saline solution containing 2% DMSO in which the compound 1 and an opioid antagonist described below were dissolved was administered intraperitoneally, in an amount of 0.01 mL per 1 g of the body weight (about 0.2 mL of the solution was administered per one mouse). The compound 1 was prepared so as to be 1 nmol per 1 g of the body weight of the mouse. The opioid antagonist was prepared so as to be 20 nmol per 1g of the body weight of the mouse.
Opioid antagonist MNTX: Methylnaltrexone bromide Antagonist selective to a […]. Unable to pass through the blood-brain barrier.
Opioid antagonist NAL-M: Naloxone methioclide Antagonist not selective to an opioid receptor. Unable to pass through the blood-brain barrier. […]

[4] = tested on: complete Freund's adjuvant-induced inflammatory pain model mice; assay: threshold of withdrawal reflex to mechanical stimulation in complete Freund's adjuvant-induced inflammatory pain model mice; settings: intrathecal, three days after CFA, examined over three hours
Experimental: Subcutaneous plantar administration of complete Freund's adjuvant (CFA) caused prolonged inflammation, which was more persistent than the inflammation caused in the carrageenan models, and this caused phenomena of hypersensitivity to mechanical stimulation and thermal stimulation. Using these CFA model mice, pain therapy effects of the compound 3 were evaluated. Before and after CFA (25 μl) was subcutaneously administered to a one-side hind limb sole of each mouse (male, C57BL/6J, 6 to 8 weeks old), mechanical stimulation was applied, and threshold of a withdrawal reflex behavior of the hind limb was measured. The appearance of the phenomenon of mechanical allodynia due to CFA was checked three days after the administration, and the compound 3 was administered intrathecally. Effects were examined over three hours thereafter. The solution of the compound 3 was prepared by dissolving the compound 3 in 99% DMSO, and diluting the same with physiological saline solution (0.2% DMSO in physiological saline solution). The results are illustrated in FIG. 4.

Row | SMILES | threshold of withdrawal reflex behavior to mechanical stimulation (FIG. 3A, FIG. 5A) [1] | suppression of thermal hyperalgesia [2] | further results
1 | CCN1/C(=C/C(C)=O)Sc2ccc(OC)cc21 [compound 2] | significantly reduced | significantly reduced | –
2 | CCN1/C(=C/C(C)=O)Sc2c(OC)cccc21 [compound 4] | significantly suppressed | significantly suppressed | –
3 | CCN1/C(=C/C(C)=O)Sc2ccc(F)cc21 [compound 1, (1Z)-1-(3-ethyl-5-fluoro-2(3H)-benzothiazolylidene)-2-propanone] | – | – | therapeutic effect on mechanical allodynia (threshold load of withdrawal behavior, von Frey filaments), FIG. 1 ([1]; oral, 1 nmol per 1 g body weight, 7 h after carrageenan, evaluated 1 h after administration, C57BL/6J male mice): significantly reduced; therapeutic effect on thermal hyperalgesia (latency of withdrawal reflex to thermal stimulation), FIG. 2 ([2]; oral, 1 pmol or 10 pmol per 1 g of mouse body, examined over two hours): significantly reduced; analgesic action on mechanical allodynia with simultaneous opioid antagonist (MNTX or NAL-M), FIG. 8 [3]: hindered by a peripheral opioid antagonist
4 | CCN1/C(=C/C(C)=O)Sc2ccc(Br)cc21 [compound 5, (1Z)-1-(5-bromo-3-ethyl-2(3H)-benzothiazoylidene)-2-propanone] | – | significantly suppressed | –
5 | CCN1/C(=C/C(C)=O)Sc2cc(OC)ccc21 [compound 3, (1Z)-1-(3-ethyl-6-methoxy-2(3H)-benzothiazoylidene)-2-propanone] | – | – | threshold of withdrawal reflex behavior to mechanical stimulation, FIG. 4 [4]: significantly suppressed
6 | CCN1/C(=C/C(C)=O)Sc2ccc(Cl)cc21 [compound 6, (1Z)-1-(5-chloro-3-ethyl-2(3H)-benzothiazoylidene)propan-2-one] | – | significantly suppressed | –
